Laboratory results published in patent US20210379066A1, “COMBINATIONS OF POSITIVE ALLOSTERIC MODULATORS AND NICOTINIC ACETYLCHOLINE RECEPTOR AGONISTS FOR TREATING OCULAR CONDITIONS” (Oyster Point Pharma, Inc., priority 2018, published 2021).
“Also recorded” adds a separate entry of the source. Where two headings read alike, the source gives them in different places.

Experiments:
Assay type in all cases: cell-based
[1] = target: T1, human alpha4beta2 nAChRs (Homo sapiens, UniProt P17787+P43681); assay: Desensitization by sustained (1 hour) agonist exposure and recovery, without and with PAM, Xenopus oocytes (Example 1); settings: no PAM; for desensitization / inhibition of the response by sustained agonist exposure: 1 hour exposure, 1 mM compound 1 hemi-galactarate dihydrate or 300 μM varenicline tartrate; for recovery of the response after wash: after 1 hour agonist exposure, 3 hours wash
T1 construct: expressed in transfected cells; host or cells: Xenopus laevis oocytes (cDNA injection)

[2] = target: T2, human alpha7 nAChRs (Homo sapiens, UniProt P36544); assay: Antagonistic activity / desensitization, cumulative exposure in the low concentration range (Example 2); settings: concentrations up to 300 nM; dihydrate
T2 construct: expressed in transfected cells; host or cells: Xenopus laevis oocytes (cDNA injection)

[3] = target: T1, human alpha4beta2 nAChRs; assay: as above; settings: nanomolar range, up to 300 nM; dihydrate
[4] = target: T3, human nAChR alpha3alpha5beta4 (Homo sapiens, UniProt P30532+P30926+P32297); assay: Agonist activity, two-electrode voltage clamp in Xenopus oocytes (Examples 2 and 5); settings: for EC50: Example 2; for agonist character: versus ACh response
T3 construct: expressed in transfected cells; host or cells: Xenopus laevis oocytes (cDNA injection)
Method: (§1) All experiments were carried out at human nAChRs expressed in Xenopus oocytes using the method of cDNA expression. Xenopus oocytes were prepared and injected using standard procedures.
(§2) Briefly, ovaries were harvested from Xenopus Laevis females that have been deeply anesthetized by cooling at 4° C. and Tricaine methanesulfonate (MS-222 at a concentration of 150 mg/L) in sodium bicarbonate (300 mg/L). Once anesthetized the animal was decapitated and pithed following the rules of animal rights from the Geneva canton. A small piece of ovary was isolated for immediate preparation while the remaining part was placed at 4° C. in a sterile Barth solution containing in mM NaCl 88, KCl 1, NaHCO32.4, HEPES 10, MgSO4.7H2O 0.82, Ca(NO3)2.4H2O 0.33, CaCl2.6H2O 0.41, at pH 7.4, and supplemented with 20 μg/ml of kanamycin, 100 unit/ml penicillin. All recordings were performed at 18° C. and cells superfused with OR2 medium containing in mM: NaCl 88, KCl 2.5, HEPES 5, CaCl2.2H2O 1.8, MgCl2.6H2O 1, pH 7.4.
(§3) Currents evoked by ACh or other agonists were recorded using an automated process equipped with standard two-electrode voltage-clamp configuration (TEVC). Data were captured and analyzed using a HiQScreen proprietary data acquisition and analysis software running under Matlab (Mathworks Inc.).
(§4) See Example 1. […] The test concentration of acetylcholine chloride was 1280 micromolar.
(§5) Injections of cDNAs encoding for the human alpha3beta4, alpha3alpha5beta4, alpha4beta2, and alpha7 were performed in at least 95 oocytes were performed using a proprietary automated injection and receptor expression examined at least two days later. Oocytes were poked with two electrodes and their membrane potential maintained, unless indicated, at −80 mV throughout the experiment.
(§6) A protocol to determine agonistic activity in the oocytes expressing the nAChRs was developed. The cells were exposed to a series of increasing concentrations of a compound agonist for 10 seconds each at two minute intervals. The current evoked from exposure to the agonist at each concentration was recorded. For oocytes expressing alpha7 nAChRs, exposure to the agonist was reduced to 5 seconds. This process was repeated for each agonist tested against each type of nAChR expressing cell.
(§7) To evaluate the agonistic properties of compound 1 hemi-galactarate dihydrate a protocol of brief exposures to a series of growing concentrations of compound 1 hemi-galactarate dihydrate was used.
(§8) Agonist Preparation: See Example 1. […] The test concentration of acetylcholine chloride was 1280 micromolar.
as §5, with “Experimental Procedures: Injections” for “Injections”, “alpha4beta2, alpha4alpha6beta2,” for “alpha4beta2,”, “oocytes” for “oocytes were performed”, “injection device. Cellular” for “injection and”, “expression was” for “expression”
as §6, with “developed. Oocytes expressing a nAChR subtype were exposed to a brief test pulse of acetylcholine (1280 micromolar) while the holding current and response was evaluated. Cells displaying robust currents were washed for 90 seconds.” for “developed.”, “were then” for “were”, “nAChR” for “compound”, “intervals. The nAChR agonist test concentrations were 0.1, 0.3, 1, 3, 10, 30, 100, 300 (micromolar).” for “intervals.”

[5] = target: T4, human nAChR alpha7 (Homo sapiens, UniProt P36544); assay: as above; settings: for agonist character: versus ACh response
T4 construct: expressed in transfected cells; host or cells: Xenopus laevis oocytes (cDNA injection)
Method: as §1, §2, §3, §4, §5, §6, §7, §8
as §5, with “Experimental Procedures: Injections” for “Injections”, “alpha4beta2, alpha4alpha6beta2,” for “alpha4beta2,”, “oocytes” for “oocytes were performed”, “injection device. Cellular” for “injection and”, “expression was” for “expression”
as §6, with “developed. Oocytes expressing a nAChR subtype were exposed to a brief test pulse of acetylcholine (1280 micromolar) while the holding current and response was evaluated. Cells displaying robust currents were washed for 90 seconds.” for “developed.”, “were then” for “were”, “nAChR” for “compound”, “intervals. The nAChR agonist test concentrations were 0.1, 0.3, 1, 3, 10, 30, 100, 300 (micromolar).” for “intervals.”

[6] = target: T5, human nAChR alpha3beta4 (Homo sapiens, UniProt P30926+P32297); assay: as above; settings: for agonist character: versus ACh response
T5 construct: expressed in transfected cells; host or cells: Xenopus laevis oocytes (cDNA injection)
Method: as §1, §2, §3, §4, §5, §6, §7, §8
as §5, with “Experimental Procedures: Injections” for “Injections”, “alpha4beta2, alpha4alpha6beta2,” for “alpha4beta2,”, “oocytes” for “oocytes were performed”, “injection device. Cellular” for “injection and”, “expression was” for “expression”
as §6, with “developed. Oocytes expressing a nAChR subtype were exposed to a brief test pulse of acetylcholine (1280 micromolar) while the holding current and response was evaluated. Cells displaying robust currents were washed for 90 seconds.” for “developed.”, “were then” for “were”, “nAChR” for “compound”, “intervals. The nAChR agonist test concentrations were 0.1, 0.3, 1, 3, 10, 30, 100, 300 (micromolar).” for “intervals.”

[7] = target: T6, human nAChR alpha4beta2 (Homo sapiens, UniProt P17787+P43681); assay: as above; settings: for EC50: Example 2; for effect on the subsequent ACh-evoked current: after exposure to the agonist concentration series; for agonist character: versus ACh response
T6 construct: expressed in transfected cells; host or cells: Xenopus laevis oocytes (cDNA injection)
Method: as §1, §2, §3, §4, §5, §6, §7, §8
as §5, with “Experimental Procedures: Injections” for “Injections”, “alpha4beta2, alpha4alpha6beta2,” for “alpha4beta2,”, “oocytes” for “oocytes were performed”, “injection device. Cellular” for “injection and”, “expression was” for “expression”
as §6, with “developed. Oocytes expressing a nAChR subtype were exposed to a brief test pulse of acetylcholine (1280 micromolar) while the holding current and response was evaluated. Cells displaying robust currents were washed for 90 seconds.” for “developed.”, “were then” for “were”, “nAChR” for “compound”, “intervals. The nAChR agonist test concentrations were 0.1, 0.3, 1, 3, 10, 30, 100, 300 (micromolar).” for “intervals.”

[8] = target: T7, human alpha3alpha5beta4 nAChRs (Homo sapiens, UniProt P30532+P30926+P32297); assay: Antagonistic activity / desensitization, cumulative exposure in the low concentration range (Example 2); settings: nanomolar range, up to 300 nM; dihydrate
T7 construct: expressed in transfected cells; host or cells: Xenopus laevis oocytes (cDNA injection)

[9] = target: T8, human alpha3beta4 nAChRs (Homo sapiens, UniProt P30926+P32297); assay: as above; settings: concentrations up to 300 nM
T8 construct: expressed in transfected cells; host or cells: Xenopus laevis oocytes (cDNA injection)

[10] = target: T1, human alpha4beta2 nAChRs; assay: Sustained exposure to 300 μM varenicline tartrate and its recovery (Example 2); settings: 36 minutes wash
[11] = target: T8, human alpha3beta4 nAChRs; assay: as above
[12] = listed as Compound 1 hemi-galactarate dihydrate, dihydrate

T8 sequence (P32297 32-505): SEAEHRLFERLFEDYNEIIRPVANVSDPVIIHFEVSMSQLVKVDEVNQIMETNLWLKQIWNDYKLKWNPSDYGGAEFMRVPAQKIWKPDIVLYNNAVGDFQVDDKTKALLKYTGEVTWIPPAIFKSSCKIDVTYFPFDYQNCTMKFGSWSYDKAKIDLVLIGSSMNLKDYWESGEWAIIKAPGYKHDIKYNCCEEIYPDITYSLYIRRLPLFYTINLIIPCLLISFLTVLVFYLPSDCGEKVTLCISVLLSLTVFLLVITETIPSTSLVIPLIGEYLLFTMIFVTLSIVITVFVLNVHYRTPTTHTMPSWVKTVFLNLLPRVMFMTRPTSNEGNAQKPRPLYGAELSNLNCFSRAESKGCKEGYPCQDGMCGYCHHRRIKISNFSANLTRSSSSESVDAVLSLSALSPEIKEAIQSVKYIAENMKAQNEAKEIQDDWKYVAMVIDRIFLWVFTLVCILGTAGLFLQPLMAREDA
T8 sequence (P30926 22-498): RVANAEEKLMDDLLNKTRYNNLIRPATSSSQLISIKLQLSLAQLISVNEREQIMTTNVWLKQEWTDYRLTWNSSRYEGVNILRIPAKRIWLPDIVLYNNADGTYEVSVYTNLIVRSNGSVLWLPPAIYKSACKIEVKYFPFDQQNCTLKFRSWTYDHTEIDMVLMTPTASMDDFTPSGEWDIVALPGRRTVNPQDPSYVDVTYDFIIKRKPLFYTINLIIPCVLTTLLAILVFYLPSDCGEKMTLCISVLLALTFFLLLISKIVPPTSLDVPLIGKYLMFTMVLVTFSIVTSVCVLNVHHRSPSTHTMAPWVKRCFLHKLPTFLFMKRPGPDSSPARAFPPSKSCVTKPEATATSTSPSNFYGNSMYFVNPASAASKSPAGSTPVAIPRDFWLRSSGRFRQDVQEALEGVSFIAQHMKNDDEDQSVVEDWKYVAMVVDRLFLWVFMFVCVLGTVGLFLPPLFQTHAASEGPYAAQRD
T5 sequence (P32297 32-505): as the sequence (P32297 32-505) above
T5 sequence (P30926 22-498): as the sequence (P30926 22-498) above
T3 sequence (P32297 32-505): as the sequence (P32297 32-505) above
T3 sequence (P30532 23-468): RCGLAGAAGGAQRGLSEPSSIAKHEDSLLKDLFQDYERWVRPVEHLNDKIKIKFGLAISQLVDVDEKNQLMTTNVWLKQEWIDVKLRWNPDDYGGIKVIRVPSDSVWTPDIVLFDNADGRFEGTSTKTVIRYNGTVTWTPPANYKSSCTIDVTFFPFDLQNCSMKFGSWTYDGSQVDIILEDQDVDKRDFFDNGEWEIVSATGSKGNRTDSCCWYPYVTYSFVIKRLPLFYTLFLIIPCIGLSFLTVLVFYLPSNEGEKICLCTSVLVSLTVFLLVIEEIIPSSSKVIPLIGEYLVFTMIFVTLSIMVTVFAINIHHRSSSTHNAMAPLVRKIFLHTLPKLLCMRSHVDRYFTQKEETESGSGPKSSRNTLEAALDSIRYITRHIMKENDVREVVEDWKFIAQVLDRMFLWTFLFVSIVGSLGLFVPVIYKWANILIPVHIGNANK
T3 sequence (P30926 22-498): as the sequence (P30926 22-498) above
T4 sequence (P36544 23-502): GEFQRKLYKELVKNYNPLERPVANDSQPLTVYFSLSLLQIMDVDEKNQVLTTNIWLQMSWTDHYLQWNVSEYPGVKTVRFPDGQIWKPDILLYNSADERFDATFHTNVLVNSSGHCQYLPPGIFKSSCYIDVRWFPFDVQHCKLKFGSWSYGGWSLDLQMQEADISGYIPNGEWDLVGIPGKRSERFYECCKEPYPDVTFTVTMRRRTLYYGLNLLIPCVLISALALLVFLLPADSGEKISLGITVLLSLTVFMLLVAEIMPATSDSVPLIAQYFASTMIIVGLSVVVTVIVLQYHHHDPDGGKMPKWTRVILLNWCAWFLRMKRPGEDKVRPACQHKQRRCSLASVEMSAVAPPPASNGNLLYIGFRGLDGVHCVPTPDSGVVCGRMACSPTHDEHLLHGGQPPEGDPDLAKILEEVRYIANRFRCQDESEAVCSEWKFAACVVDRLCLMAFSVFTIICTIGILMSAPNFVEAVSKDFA
T6 sequence (P43681 29-627 limits assumed): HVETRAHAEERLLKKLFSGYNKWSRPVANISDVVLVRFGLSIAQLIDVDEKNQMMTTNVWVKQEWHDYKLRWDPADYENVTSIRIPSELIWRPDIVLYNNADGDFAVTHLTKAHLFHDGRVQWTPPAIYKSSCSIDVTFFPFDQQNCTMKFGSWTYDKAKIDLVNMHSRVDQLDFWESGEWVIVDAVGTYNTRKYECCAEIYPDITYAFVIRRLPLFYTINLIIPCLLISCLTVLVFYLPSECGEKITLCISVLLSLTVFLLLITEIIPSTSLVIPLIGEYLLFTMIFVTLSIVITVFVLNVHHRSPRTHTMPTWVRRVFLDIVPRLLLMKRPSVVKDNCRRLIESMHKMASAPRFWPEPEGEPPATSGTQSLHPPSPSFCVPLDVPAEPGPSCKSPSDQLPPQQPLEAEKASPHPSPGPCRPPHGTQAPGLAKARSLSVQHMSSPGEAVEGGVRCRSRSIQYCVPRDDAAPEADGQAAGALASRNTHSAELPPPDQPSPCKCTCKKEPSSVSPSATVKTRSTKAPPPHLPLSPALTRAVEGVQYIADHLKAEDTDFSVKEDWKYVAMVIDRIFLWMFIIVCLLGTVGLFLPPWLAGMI
T6 sequence (P17787 26-502): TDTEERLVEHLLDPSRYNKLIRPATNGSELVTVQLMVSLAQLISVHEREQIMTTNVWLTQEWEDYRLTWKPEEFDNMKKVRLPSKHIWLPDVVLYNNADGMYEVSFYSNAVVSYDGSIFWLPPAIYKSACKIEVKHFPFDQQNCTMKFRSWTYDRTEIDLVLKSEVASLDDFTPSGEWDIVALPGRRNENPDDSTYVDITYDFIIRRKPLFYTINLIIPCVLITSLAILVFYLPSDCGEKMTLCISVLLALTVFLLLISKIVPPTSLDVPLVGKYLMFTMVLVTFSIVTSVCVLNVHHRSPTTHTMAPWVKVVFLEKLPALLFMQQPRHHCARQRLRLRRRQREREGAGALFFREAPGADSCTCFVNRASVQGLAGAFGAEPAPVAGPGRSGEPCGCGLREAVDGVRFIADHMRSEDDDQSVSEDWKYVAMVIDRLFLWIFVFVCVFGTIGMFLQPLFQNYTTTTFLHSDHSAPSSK
T1 sequence (P43681 29-627 limits assumed): as the sequence (P43681 29-627 limits assumed) above
T1 sequence (P17787 26-502): as the sequence (P17787 26-502) above
T7 sequence (P32297 32-505): as the sequence (P32297 32-505) above
T7 sequence (P30532 23-468): as the sequence (P30532 23-468) above
T7 sequence (P30926 22-498): as the sequence (P30926 22-498) above
T2 sequence (P36544 23-502): as the sequence (P36544 23-502) above

`C(=C\[C@H]1CCNC1)/c1cncnc1` [compound 1 hemi-galactarate dihydrate, (R)-5-((E)-2-pyrrolidin-3-ylvinyl)pyrimidine hemigalactarate dihydrate] was tested, and the “desensitization / inhibition of the response by sustained agonist exposure” value ([1]; dihydrate) was “no long-lasting desensitization; also recorded: only a modest inhibition; also recorded: does not cause a long-lasting inhibition; also recorded: no long-lasting inhibition”, the “recovery of the response after wash” value [1] was “almost full recovery” and the “response after 18 hours recovery” value ([1]; after 1 hour exposure to 1 mM agonist) was “significant increase of the response”. The “inhibition of the ACh-evoked current by sustained exposure” value (shortened to “inhibition of the ACh-evoked current”) [2] was “insensitive; also recorded: no significant inhibition”, the “inhibition of the ACh-evoked current” value [3] was “marked inhibition; also recorded: inhibits in a concentration-dependent manner” and the “percent of the maximal ACh-evoked currents” value ([4]; ACh 1280 micromolar) was “about 94%”. For the same compound, the EC50 ([4]; read-out: EC50) was 32.1 ± 2.16 µM, the agonist character [4, 12] was “almost as a full agonist” and the EC50 ([5]; Example 2, value for compound 1 salt only an estimation) was 1.26 ± 0.5 mM. The “percent of the maximal ACh-evoked current” value ([5]; at 300 μM (300 micromolar) agonist, dihydrate) was 24%, the agonist character ([5]; dihydrate) was “poor agonist” and the agonist character [5, 12] was “more potent agonist than ACh”. For the same compound, the “percent of the maximal ACh-evoked currents” value ([6]; ACh 1280 micromolar) was “about 94%”, the EC50 ([6]; read-out: EC50) was 42.1 ± 5.36 µM and the agonist character [6, 12] was “almost as a full agonist”. The “evoked currents larger than the maximal ACh responses” value [7] was “about 2 fold”, the EC50 ([7]; read-out: EC50) was 48.8 ± 17.4 µM and the “effect on the subsequent ACh-evoked current” value ([7]; dihydrate) was “enhanced”. For the same compound, the agonist character [7, 12] was “more potent agonist than ACh”, the “inhibition of the ACh-evoked current” value [8] was “marked inhibition; also recorded: inhibits in a concentration-dependent manner” and the “inhibition of the ACh-evoked current” value ([9]; dihydrate) was “insensitive; also recorded: no significant inhibition”.

“varenicline tartrate [reference compound]” was tested, and the “desensitization / inhibition of the response by sustained agonist exposure” value [1] was “profound inhibition; also recorded: major desensitization; also recorded: sustained inhibition; also recorded: major inhibition”, the “recovery of the response after wash” value [1] was “could not be removed even after a three-hour wash period; also recorded: no significant recovery; also recorded: absence of recovery” and the recovery from desensitization [10] was “absence of recovery; also recorded: cannot be recovered even after 36 minutes wash”. For the same compound, the recovery from desensitization ([11]; 300 μM, 36 minutes wash) was “absence of recovery; also recorded: cannot be recovered even after 36 minutes wash”, the “response evoked by 300 μM agonist” value ([11]; applied during three minutes) was “larger current amplitude; also recorded: rather large response” and the EC50 [4] was “low micromolar range”. The agonist character [4] was “partial agonist”, the EC50 [6] was “low micromolar range” and the agonist character [6] was “partial agonist”. For the same compound, the EC50 [7] was “low micromolar range”, the “effect on the subsequent ACh-evoked current” value [7] was “major inhibition” and the agonist character [7] was “partial agonist”. The agonist character ([7]; listed as Varenicline tartrate) was “very poor agonist” and the “inhibition of the ACh-evoked current” value [9] was “very modest effect; also recorded: no significant inhibition”.
